# According to article PMC5307958 (Scientific Reports, 2017):
# Entries after “also recorded” stand apart in the source; their conditions may differ. Where a SMILES comes first, the peptide text is derived from it. Bridges are numbered along the chain shown (N, C = ends).
# Legend:
# [1] = Blood-brain barrier crossing inferred from functional activity in the IC; format: in vivo, mouse; details: inferred from suppression of sound evoked activity after topical (dura) or systemic (0.3 mg/kg I.P.) administration
# Protocol: The temperature was maintained near 25 °C.
# [2] = tested on: mAcetylcholine M1; test: Competition radioligand binding (NIMH PDSP); details: radioligand QNB, measured 4 times
# [3] = biological target: T1, human BKα channel (ZERO isoform) expressed in HEK293 cells (Homo sapiens, UniProt Q12791); test: Patch-clamp recording, inside-out patches, intracellular application; format: cell-based; details: 50 nM LS3 applied to intracellular (internal) side; n.s., N = 6
# T1 construct: expressed in transfected cells; host or cells: HEK293 (ATCC), transient transfection with Lipofectamine 2000; EGFP cotransfected as a separate marker
# T1 sequence (Q12791 1-1178 isoform Q12791-5): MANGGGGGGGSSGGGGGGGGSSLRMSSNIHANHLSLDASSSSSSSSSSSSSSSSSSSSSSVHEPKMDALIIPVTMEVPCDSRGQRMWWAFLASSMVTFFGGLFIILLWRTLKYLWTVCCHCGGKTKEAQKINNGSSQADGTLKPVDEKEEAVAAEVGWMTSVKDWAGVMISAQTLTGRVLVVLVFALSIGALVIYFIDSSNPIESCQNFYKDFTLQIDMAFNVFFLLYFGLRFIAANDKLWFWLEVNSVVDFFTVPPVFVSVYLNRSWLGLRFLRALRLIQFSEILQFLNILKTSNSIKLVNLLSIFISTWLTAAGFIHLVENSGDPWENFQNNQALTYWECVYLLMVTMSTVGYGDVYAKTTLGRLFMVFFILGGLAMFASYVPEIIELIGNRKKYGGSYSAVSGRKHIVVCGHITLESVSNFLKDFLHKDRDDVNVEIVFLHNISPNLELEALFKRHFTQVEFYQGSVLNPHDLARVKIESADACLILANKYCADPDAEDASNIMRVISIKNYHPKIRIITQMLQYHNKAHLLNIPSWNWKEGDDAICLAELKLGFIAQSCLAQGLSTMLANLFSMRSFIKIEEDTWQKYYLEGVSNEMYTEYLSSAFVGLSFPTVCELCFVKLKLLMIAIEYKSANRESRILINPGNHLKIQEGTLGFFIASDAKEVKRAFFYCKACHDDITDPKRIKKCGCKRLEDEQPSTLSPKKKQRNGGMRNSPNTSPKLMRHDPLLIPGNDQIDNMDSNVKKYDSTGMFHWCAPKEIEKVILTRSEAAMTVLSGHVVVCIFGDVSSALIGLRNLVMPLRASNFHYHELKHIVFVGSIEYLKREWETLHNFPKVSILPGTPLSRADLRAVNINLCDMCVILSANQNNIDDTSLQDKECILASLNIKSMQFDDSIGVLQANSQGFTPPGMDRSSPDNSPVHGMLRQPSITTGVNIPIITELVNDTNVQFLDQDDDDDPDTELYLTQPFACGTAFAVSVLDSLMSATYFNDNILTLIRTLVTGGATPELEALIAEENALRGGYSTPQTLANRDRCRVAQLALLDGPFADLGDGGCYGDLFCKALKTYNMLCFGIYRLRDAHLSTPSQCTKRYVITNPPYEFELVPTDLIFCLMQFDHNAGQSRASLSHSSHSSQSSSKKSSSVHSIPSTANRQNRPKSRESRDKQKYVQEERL
# [4] = tested on: hslo(+) human BK channel gene (ZERO isoform) expressed in slo-1(null) worms; test: C. elegans crawl speed, hslo(+) rescue on slo-1 null background; format: in vivo, Caenorhabditis elegans; details: 750 μM LS3, 30 min; transgenic hslo(+) on slo-1(null) background; vs. slo-1(null): p < 0.001, N = 78–162
# Protocol: (§1) Worms were cultivated at 20 °C as described with OP50 bacteria. Worms cultured on plates contaminated with fungi or other bacteria were excluded from this study. The reference wild-type strain was N2 Bristol. The reference slo-1(null) strain and background for transgenic strains was NM1968, harboring the previously characterized null allele, js379[29]. Multi-site gateway technology (Invitrogen) was used to construct plasmids. […] of the native slo-1 promoter (Pslo-1) and the traditional unc-54 UTR were used in combination with slo-1a(cDNA)::mCherry for a rescue construct. To test rescue with the human BK channel, an hslo(ZERO isoform, cDNA)::mCherry version was constructed. The slo-1(+) and hslo(+) plasmids were injected at a concentration of 20 and 10 ng/μl, respectively. The co-injection reporter PCFJ90 (1.25 ng/μl) was used to ensure proper transformation of the arrays. As such, JPS345 carried vxEx345, an extrachromosomal array containing [Pslo-1::slo-1::mCherry::unc-54UTR,Pmyo-2::mCherry::unc-54UTR]. JPS340 carried […], an extrachromosomal array containing [Pslo-1::hslo::mCherry::unc-54UTR,Pmyo-2::mCherry::unc-54UTR].
# Age-matched day one adults were cleaned of bacteria by letting them crawl around on an unseeded plate and then moved into a puddle of NGM or peptide dissolved in NGM on another unseeded plate. […]
# [5] = biological target: T1, human BKα channel (ZERO isoform) expressed in HEK293 cells; test: Patch-clamp recording, inside-out patches, extracellular application; format: cell-based
# Protocol: HEK293 cells (ATCC, Manassas, VA) were grown according to standard procedures. Cells were cultured at 37 °C in a 5% CO2 atmosphere in Dulbecco’s modified Eagle’s medium with L-glutamine, sodium pyruvate and 10% fetal bovine serum (Invitrogen). Cell lines were split with trypsin/EDTA in Hanks’ balanced salt solution (Invitrogen) up to 25–30 cycles. For phage display, stable lines stably expressed rSK2 or hBKα ZERO isoform. Cells were transfected (Lipofectamine 2000, Invitrogen) with hGlyRα1 and used 48 hours later. For electrophysiological recordings, cells were transfected with hBKα ZERO isoform. Enhanced green fluorescent protein (EGFP) was cotransfected as a marker. Electrophysiological recordings were made 16–72 h after transfection. Although the profile of BK channel composition varies from tissue to tissue, the ZERO BK channel splice variant is widely expressed, particularly in the nervous system, serving as a representative form for studying the modulation of BK channel gating.
# Voltage-clamp recordings were performed at room temperature (22–24 °C) using an inside-out configuration on patches pulled from HEK293 cells. The extracellular solution contained the following (in mM): 2 KCl, 136 KOH, 20 HEPES, 2 MgCl2, adjusted to pH 7.2 with MeSO3H. In order to apply peptide to the extracellular surface, patch electrodes (7–20 MΩ in resistance) were tip-filled with normal extracellular solution and backfilled with extracellular solution containing LS3. Enough normal extracellular solution was included to provide at least five minutes of peptide-free recording (determined by plotting Po vs. time). The intracellular solution (in the bath) contained the following (in mM): 6 KCl, 132 KOH, 20 HEPES, adjusted to pH 7.2 with MeSO3H. To achieve 750 nM free Ca^2+, […] and 5 mM EGTA were included, a ratio verified by measurement with a Ca^2+-sensitive electrode. Voltage-clamp recordings made with an Axopatch 200 A amplifier and custom macros in IgorPro. Analysis was performed with QUB (http://www.qub.buffalo.edu), including Po, mean open time and three component exponential fits to closed dwell times. Group means±SEM for post-peptide measures were plotted relative to pre-peptide values and compared with pre values via planned paired t-tests.
# [6] = tested on: mAcetylcholine M3; test: Competition radioligand binding (NIMH PDSP); details: radioligand QNB, measured 4 times
# [7] = tested on: mAcetylcholine M4; test: Competition radioligand binding (NIMH PDSP); details: radioligand QNB, measured 4 times
# [8] = tested on: slo-1 null worms (NM1968, js379); test: C. elegans crawl speed, slo-1 null; format: in vivo, Caenorhabditis elegans; details: for effect on crawl speed (LS3 reduced crawl speed for wild type but not slo-1(null)): 30 min
# Protocol: as §1
# Age-matched day one adults were cleaned of bacteria by letting them crawl around on an unseeded plate and then moved into a puddle of NGM or peptide dissolved in NGM on another unseeded plate. NGM and peptide treatment groups were always run in tandem to control for behavioral variance. While much shorter than typical drug applications in C. elegans, brief application in liquid was chosen to avoid potential catabolic by-products of incubation on metabolically active E. coli. Higher LS3 concentrations were used to compensate. The puddle was refreshed 1–2 times as needed, but let to fully absorb into the agar by 30 minutes. After 30 minutes, crawl behavior was videoed (Flea2 camera, Point Grey Research, Canada; StreamPix 3, NorPix, Canada). Copper rings restricted movement to a proscribed area. The worms were tracked offline using custom macros (Image-Pro, MediaCybernetics, Rockville, MD) for 1 minute to obtain crawl speed (cm/min). Group means ± SEM for peptide-treated vs. vehicle-treated controls were compared at each concentration with Student’s t-tests. Rescue analysis was completed with two-way ANOVA (SigmaPlot, San Jose, CA). Crawl speeds for the peptide treated groups were also normalized to the performance of yoked controls. Normalized group means±SEM were compared vs. slo-1 null performance by two-way ANOVA.
structure (smiles),measurement,setting,value
CC(C)C[C@@H]1NC(=O)CNC(=O)[C@H](CCCNC(=N)N)NC(=O)[C@H](CCCNC(=N)N)NC(=O)[C@@H](N)CSSC[C@@H](C(=O)O)NC(=O)[C@H](C(C)C)NC(=O)[C@H](CCC(N)=O)NC(=O)[C@H](C(C)C)NC1=O [LS3] (H-CRRGLVQVC-OH; disulfide 1-9; N-terminus and C-terminus assumed),ability to cross the BBB,[1],can cross the BBB; also recorded: rapidly crosses the BBB after systemic delivery; also recorded: crosses the blood-brain barrier (BBB)
same,% inhibition by 10 µM LS3,[2],12.6%
same,effect on Po (post vs. pre peptide),[3],did not reduce Po; also recorded: Only when applied to the external side did LS3 significantly reduce Po
same,LS3-induced slowing response (reduction in crawl speed),[4],rescued the LS3-induced slowing response
same,effect on Po (post vs. pre peptide),"[5]; 50 pM LS3, extracellular, any voltage (60–100 mV), 750 nM Ca",did not significantly alter the Po
same,effect on Po (post vs. pre peptide),"[5]; 500 pM to 500 nM LS3, extracellular, each holding potential 60–100 mV, 750 nM Ca, N = 6–12",reduced the Po at each holding potential
same,effect on Po (post vs. pre peptide),"[5]; 50 nM LS3 applied to extracellular (external) side, each voltage, p < 0.05, N = 6",reduction in Po at each voltage; also recorded: significantly reduce Po at all voltages
same,short closed dwell times,"[5]; 500 nM LS3, 750 nM Ca, three-component exponential fits, component 0, N = 8",remained unchanged; also recorded: did not change significantly
same,long closed dwell times,"[5]; 500 nM LS3, 750 nM Ca, three-component exponential fits, component 2, p < 0.05, N = 8",increased; also recorded: lengthened
same,post Po relative to pre,"[5]; 500 nM LS3, 40 mV, p < 0.05",0.54 ± 0.17
same,single channel conductance post LS3,"[5]; 500 nM LS3, 60 mV, pre peptide 282 ± 4.62 pS (remained stable)",287 ± 5.12 pS
same,mean open times,"[5]; 500 nM LS3, all holding potentials 60–100 mV, 750 nM Ca, p < 0.05, N = 8",decreasing mean open times at all holding potentials; also recorded: shortened openings
same,reduction of probability of channel opening (Po),"[5]; 60 mV, high picomolar to nanomolar LS3, extracellular, intracellular calcium 750 nM",~ 60%
same,apparent affinity compared with known blockers,[5]; LS3 vs. known high affinity BK channel toxins / Kv peptide toxins or paxilline,higher than known high affinity BK channel toxins; also recorded: higher apparent affinity than Kv peptide toxins or paxilline
same,mode of action on channel,"[5]; from change in mean open and closed times, rather than blocking the pore",modulates channel gating
same,IC50 for reduction of BK channel open probability (Po),"[5]; inside-out patches, peptide applied to extracellular side, intracellular calcium 750 nM, 22–24 °C, approximate, in words",mid-picomolar range
same,% inhibition by 10 µM LS3,[6],11.5%
same,% inhibition by 10 µM LS3,[7],6.8%
same,effect on crawl speed (LS3 reduced crawl speed for wild type but not slo-1(null)),[8]; 75 µM LS3 vs. vehicle,not
same,effect on crawl speed (LS3 reduced crawl speed for wild type but not slo-1(null)),[8]; 250 µM LS3 vs. vehicle,not
same,effect on crawl speed (LS3 reduced crawl speed for wild type but not slo-1(null)),[8]; 750 µM LS3 vs. vehicle,not
same,effect on crawl speed,"[8]; slo-1 null, LS3 in NGM, 30 min bath, normalized to vehicle-treated controls",did not significantly slow
